Source: the supplement of paper PMC10307832

How the values were obtained:
Experiment in all cases: relative viability (nuclei count vs DMSO), 5 days (fraction); higher = more cells survive
Linsitinib + OSI-027 = compound: C[C@]1(O)C[C@@H](c2nc(-c3ccc4ccc(-c5ccccc5)nc4c3)c3c(N)nccn32)C1 [Linsitinib] + COc1cccc2cc(-c3nc([C@H]4CC[C@H](C(=O)O)CC4)n4ncnc(N)c34)[nH]c12 [OSI-027] (partner 0.5 µM)
Outline: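 Relative viability divides the nuclei count in treated wells by that in vehicle wells. Lung cancer cell lines were seeded in 1536-well plates, dosed by pin tool the next day, and fixed and stained after 5 days in one step with final 0.05% Triton X-100, 1% formaldehyde and 1 ug/ml Hoechst. Dosing was a single drug or a fixed anchor-drug dose plus five library-drug doses (not always all listed) in √10 steps, and values are medians of duplicate plates imaged at 4×.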

Ispinesib = compound: Cc1ccc(C(=O)N(CCCN)[C@@H](c2nc3cc(Cl)ccc3c(=O)n2Cc2ccccc2)C(C)C)cc1 [Ispinesib]
Outline: (§1)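 Only plates meeting two conditions passed: control CV below 25% and at least one doubling. Lung cancer cell lines, kept overnight at 37 °C in 1536-well plates, were pinned with five library-drug doses (not always all listed) √10 apart on vehicle-anchored plates and grown 5 days without medium change. A one-step fix, permeabilisation and Hoechst stain preceded 4× imaging and MetaXpress nuclear counting. Viability equals treated-well nuclei divided by vehicle-well nuclei, as the median over plates.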

Linsitinib = compound: C[C@]1(O)C[C@@H](c2nc(-c3ccc4ccc(-c5ccccc5)nc4c3)c3c(N)nccn32)C1 [Linsitinib]
Outline: as §1

| Cell Line | relative viability (Linsitinib + OSI-027; first compound 0.01 µM) | relative viability (Linsitinib + OSI-027; first compound 0.03162 µM) | relative viability (Linsitinib + OSI-027; first compound 0.1 µM) | relative viability (Linsitinib + OSI-027; first compound 0.3162 µM) | relative viability (Linsitinib + OSI-027; first compound 1 µM) | relative viability (Ispinesib; 0.001 µM) | relative viability (Ispinesib; 0.003162 µM) | relative viability (Ispinesib; 0.01 µM) | relative viability (Ispinesib; 0.03162 µM) | relative viability (Ispinesib; 0.1 µM) | relative viability (Linsitinib; 0.01 µM) | relative viability (Linsitinib; 0.03162 µM) | relative viability (Linsitinib; 0.1 µM) | relative viability (Linsitinib; 0.3162 µM) | relative viability (Linsitinib; 1 µM) | relative viability (Linsitinib; 1 µM, anchor plate) |
| --- | --- | --- | --- | --- | --- | --- | --- | --- | --- | --- | --- | --- | --- | --- | --- | --- |
| NCI-H1563 | 0.695 | 0.786 | 0.714 | 0.87 | 0.63 | 1.13 | 0.97 | 0.938 | 0.927 | 0.772 | 1.03 | 0.924 | 1.09 | 1.3 | 0.93 | 1.22 |
| NCI-H2405 | 0.624 | 0.638 | 0.637 | 0.53 | 0.347 | 1.05 | 1.05 | 1.05 | 0.884 | 0.561 | 0.93 | 0.966 | 1 | 0.821 | 0.678 | 0.891 |
| LCLC-97TM1 | 0.52 | 0.515 | 0.335 | 0.248 | 0.234 | 1.02 | 0.964 | 1.18 | 0.6 | 0.132 | 0.901 | 1.01 | 0.99 | 0.329 | 0.477 | 0.186 |
| NCI-H727 | 0.609 | 0.597 | 0.608 | 0.347 | 0.358 | 1.16 | 1.09 | 1.14 | 0.845 | 0.543 | 0.961 | 0.866 | 0.895 | 0.461 | 0.591 | 0.305 |
| NCI-H2342 | 0.521 | 0.608 | 0.608 | 0.53 | 0.551 | 0.986 | 0.942 | 1.04 | 0.935 | 0.638 | 0.889 | 1.07 | 0.86 | 1.01 | 0.768 | – |
| NCI-H1623 | 0.408 | 0.432 | 0.398 | – | 0.285 | 1.07 | 1.03 | 1.05 | 1.02 | 0.722 | 0.889 | 0.955 | 0.889 | – | 0.815 | – |
| NCI-H2228 | 0.57 | 0.604 | 0.492 | 0.335 | 0.254 | 1.03 | 1 | 1.38 | 0.688 | 0.344 | 0.882 | 0.873 | 0.768 | 0.752 | 0.746 | 0.741 |
| LK-2 | 0.243 | 0.242 | 0.154 | 0.167 | 0.168 | 1.13 | 1.19 | 1.17 | 0.705 | 0.348 | 0.994 | 1.09 | 0.919 | 0.594 | 0.744 | 0.6 |
| PC-3 [JPC-3] | 0.709 | 0.79 | 0.664 | 0.651 | 0.463 | 1.06 | 1.15 | 1.09 | 0.909 | 0.533 | 1.04 | 1.06 | 1.1 | 0.947 | 0.916 | 0.949 |
